Read-outs that look alike come from different tables or passages of the source.
Key:
[1] = tested on: Maximal electroshock seizures; assay: MES--Maximal Electroshock Seizure Test, mice; assay type: in vivo, male Carworth Farms No. 1 mice; details: Mus musculus
Text: Maximal electroshock seizures are elicited with a 60 cycle alternating current of 50 mA intensity (5-7 times that necessary to elicit minimal electroshock seizures) delivered for 0.2 sec via corneal electrodes. A drop of 0.9% saline is instilled in the eye prior to application of the electrodes in order to prevent the death of the animal. Abolition of the hind limb tonic extension component of the seizure is defined as protection and results are expressed as:

[2] = Rotorod toxicity test (Tox), mice; assay type: in vivo, male Carworth Farms No. 1 mice
Method: The Rotorod test is used to evaluate neurotoxicity. The animal is placed on a 1 inch diameter knurled plastic rod rotating at 6 rpm. Normal mice can remain on a rod rotating at this speed indefinitely. Neurologic toxicity is defined as the failure of the animal to remain on the rod for 1 minute, and is expressed as:

[3] = tested on: Maximal electroshock seizures; assay: MES--Maximal Electroshock Seizure Test, rats; assay type: in vivo; details: Rattus norvegicus, oral
Method: The utility of the aforementioned compound as an anticonvulsant is determined by generating a compound profile using three tests. The tests employed are described in Epilepsia 19 (1978) 409-428 which is incorporated by reference. Maximal electroshock seizures are elicited with a 60 cycle alternating current of 50 mA intensity (5-7 times that necessary to elicit minimal electroshock seizures) delivered for 0.2 sec via corneal electrodes. A drop of 0.9% saline is instilled in the eye prior to application of the electrodes in order to […]. Abolition of the hind limb tonic extension component of the seizure is defined as protection and results are expressed as: number of animals protected/number of animals tested.

[4] = tested on: Pentylenetetrazol (Metrazol) seizure; assay: sc Met--Subcutaneous Pentylenetetrazol (Metrazol) Seizure Threshold Test, mice; assay type: in vivo, male Carworth Farms No. 1 mice; details: for ED50 sc Met: intraperitoneal
Method: (§1) The utility of the aforementioned compound as an anticonvulsant is determined by generating a compound profile using three tests. The tests employed are described in Epilepsia 19 (1978) 409-428 which is incorporated by reference.
The tests were performed by the National Institute of Neurological and Communicative Disorders and Stroke and used male Carworth Farms No. 1 mice. The compounds are employed at at least 3 dose levels (30, 100, 300 mg/kg) in the following three tests.
sc Met--Subcutaneous Pentylenetetrazol (Metrazol®) Seizure Threshold Test
(§2) The animal is observed for 30 minutes. Failure to observe even a threshold seizure (a single episode of clonic spasms of at least 5 sec duration) is defined as protection and the results are expressed as: […]
(§3) number of animals protected/number of animals tested.

Picrotoxin = Picrotoxin test, mice; assay type: in vivo; details: intraperitoneal
[5] = Rotorod toxicity test (Tox), rats; assay type: in vivo; details: for TD50: rat, in vivo, po
Bicuculline = Bicuculline test, mice; assay type: in vivo
Strychnine = Strychnine test, mice; assay type: in vivo; details: intraperitoneal
[6] = tested on: Pentylenetetrazol (Metrazol) seizure; assay: sc Met--Subcutaneous Pentylenetetrazol (Metrazol) Seizure Threshold Test, rats; assay type: in vivo; details: oral
Method: as §1, §2, §3

[7] = mouse, in vivo, po; cited from earlier work
[8] = rat, in vivo, po; cited from earlier work

Cc1cc[n+]([O-])cc1Oc1ccccc1 [4-METHYL-3-PHENOXYPYRIDINE-1-OXIDE, 4-methyl-3-phenoxypyridine-1-oxide]
ED50 ([1]; ip, intraperitoneal, read-out: ED50 MES): 23.2 mg/kg | ED50 ([1]; oral, read-out: MES-ED50): 85.3 mg/kg | TD50 ([2]; mouse, in vivo, ip): 76.2 mg/kg | TD50 ([2]; mouse, in vivo, po): 296 mg/kg | ED50 [3]: 11.2 mg/kg | ED50 sc Met [4]: Potentiates | sc Met-ED50 ([4]; oral): Potentiates | ED50 Picrotoxin (Picrotoxin): Potentiates | TD50 [5]: 76.1 mg/kg | ED50 Bicuculline (Bicuculline; intraperitoneal, mice): Potentiates | ED50 Strychnine (Strychnine): Ineffective | sc Met-ED50 [6]: Potentiates

NC(=O)N1c2ccccc2C=Cc2ccccc21 [CARBAMAZEPINE]
ED50 [3]: 8.5 mg/kg | ED50 sc Met [4]: Potentiates | ROTOROD TD50 ([5]; oral, rats): 813.06 mg/kg | Max. Prot. (Bicuculline) (Bicuculline; intraperitoneal, mice, at 50-130 mg/kg): 62.5% | sc Met-ED50 [6]: Variable

CCC1(c2ccccc2)NC(=O)N(C)C1=O (stereo not drawn) [MEPHENYTOIN]
ED50 ([1]; oral, read-out: MES-ED50): 37 mg/kg | TD50 ([2]; intraperitoneal, mice): 153.82 mg/kg | ED50 [3]: 10 mg/kg | ROTOROD TD50 [7]: 97.0 mg/kg | ED50 ([4]; Mus musculus, oral): 53 mg/kg | ED50 (Bicuculline; Mus musculus, ip, read-out: ED50 Bicuculline): 124 mg/kg | Max. Prot. (Strychnine) (Strychnine; at 70-150 mg/kg): 50% | ED50 ([6]; Rattus norvegicus): 105 mg/kg | ROTOROD TD50 [8]: 143 mg/kg

O=C1NC(=O)C(c2ccccc2)(c2ccccc2)N1 [PHENYTOIN]
ED50 sc Met [4]: Potentiates | sc Met-ED50 ([4]; oral): Ineffective | ED50 Picrotoxin (Picrotoxin): Potentiates | TD50 [5]: > 3000 mg/kg | ED50 Bicuculline (Bicuculline; intraperitoneal, mice): Potentiates | Max. Prot. (Strychnine) (Strychnine; at 55-100 mg/kg): 50% | sc Met-ED50 [6]: Ineffective
